Target: T1, CXCR1 receptor (Homo sapiens, UniProt P25024)
T1 sequence (P25024 1-350): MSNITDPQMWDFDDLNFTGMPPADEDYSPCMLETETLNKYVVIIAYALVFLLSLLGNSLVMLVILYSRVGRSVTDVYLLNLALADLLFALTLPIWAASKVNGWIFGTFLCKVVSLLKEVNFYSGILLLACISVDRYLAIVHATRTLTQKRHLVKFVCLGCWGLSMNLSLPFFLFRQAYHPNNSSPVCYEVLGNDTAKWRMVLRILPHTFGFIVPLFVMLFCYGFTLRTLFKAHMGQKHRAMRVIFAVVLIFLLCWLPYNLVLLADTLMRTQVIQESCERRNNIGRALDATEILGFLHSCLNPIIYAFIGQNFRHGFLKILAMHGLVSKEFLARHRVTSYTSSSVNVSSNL
Assay: Receptor binding assay ([125I] IL-8 SPA), CXCR1
Parameters: expressed in transfected cells; host or cells: CHO cells (membranes)
Conditions: [125I] IL-8 binding, CHO-CXCR1 membranes; read-out: pIC50 against the CXCR1 receptor (converted)
Method: [^125I] IL-8 (human recombinant, IM249) was obtained from Amersham Corp., Arlington Heights, Ill., with specific activity 2000 Ci/mmol. All other chemicals were of analytical grade. High levels of recombinant human CXCR1 and CXCR2 receptors were individually expressed in Chinese hamster ovary (CHO) cells as described in Holmes, et al., Science, 1991, 253, 1278, incorporated herein to the extent required to perform the present assay. The Chinese hamster ovary membranes were prepared according to Haour, et al., J. Biol. Chem., 249 pp 2195-2205 (1974), incorporated herein to the extent required to perform the present assay, except that the homogenization buffer was changed to 40 mM Tris-HCL pH 7.5 containing 1 mM MgSO4, 0.5 mM EDTA (ethylene-diaminetetra-acetic acid), 1 mM PMSF (α-toluene-sulphonyl fluoride), 2.5 mg/L Leupeptin and 0.1 mg/ml Aprotinin. Membrane protein concentration was determined using Bio-Rad Reagent using bovine serum albumin as a standard. All binding assays were conducted using Scintillation Proximity Assay (SPA assay) using wheatgerm agglutinin beads in a 96-well micro plate (optiplate 96, Packard) format. […] The 96-well plates were incubated on a shaking platform for 1 hour. At the end of the incubation the plates were spun for 5 min at 2000 RPM, and counted in a Top Count counter.

Q: For O=C(Nc1ccc(Cl)c(S(=O)(=O)N2CCNCC2)c1O)Nc1cccc(F)c1Cl [Compound of Formula (A), 1-(4-chloro-2-hydroxy-3-(piperazin-1-ylsulfonyl)phenyl)-3-(2-chloro-3-fluorophenyl)urea], which IC50 is on record?
A: The IC50 was 3.16 µM.
